Data published in US20240199623A1 (ILDONG PHARMACEUTICAL CO., LTD., priority 2020, published 2024).

Target: human wild type-CFTR (Homo sapiens, UniProt P13569)
Test: Cell-based YFP assay
Parameters: expressed in transfected cells; host or cells: CHO-K1 (Chinese hamster ovary)
Details: CHO-K1 cells expressing human wild type-CFTR and YFP-H148Q/I152L; forskolin 20 μM = 100% activity; read-out: Cell-based YFP Assay (EC50) Concentration Range
Procedure, shortened: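 I⁻-driven YFP fluorescence quenching at 37 °C: 2 s baseline, addition of 140 mM iodide solution, then 14 s of readings at 0.4 s intervals. Cells were CHO-K1 expressing human wild-type CFTR plus YFP-H148Q/I152L. EC50 derived from averaged triplicates.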

Chain of human wild type-CFTR (P13569 whole entry): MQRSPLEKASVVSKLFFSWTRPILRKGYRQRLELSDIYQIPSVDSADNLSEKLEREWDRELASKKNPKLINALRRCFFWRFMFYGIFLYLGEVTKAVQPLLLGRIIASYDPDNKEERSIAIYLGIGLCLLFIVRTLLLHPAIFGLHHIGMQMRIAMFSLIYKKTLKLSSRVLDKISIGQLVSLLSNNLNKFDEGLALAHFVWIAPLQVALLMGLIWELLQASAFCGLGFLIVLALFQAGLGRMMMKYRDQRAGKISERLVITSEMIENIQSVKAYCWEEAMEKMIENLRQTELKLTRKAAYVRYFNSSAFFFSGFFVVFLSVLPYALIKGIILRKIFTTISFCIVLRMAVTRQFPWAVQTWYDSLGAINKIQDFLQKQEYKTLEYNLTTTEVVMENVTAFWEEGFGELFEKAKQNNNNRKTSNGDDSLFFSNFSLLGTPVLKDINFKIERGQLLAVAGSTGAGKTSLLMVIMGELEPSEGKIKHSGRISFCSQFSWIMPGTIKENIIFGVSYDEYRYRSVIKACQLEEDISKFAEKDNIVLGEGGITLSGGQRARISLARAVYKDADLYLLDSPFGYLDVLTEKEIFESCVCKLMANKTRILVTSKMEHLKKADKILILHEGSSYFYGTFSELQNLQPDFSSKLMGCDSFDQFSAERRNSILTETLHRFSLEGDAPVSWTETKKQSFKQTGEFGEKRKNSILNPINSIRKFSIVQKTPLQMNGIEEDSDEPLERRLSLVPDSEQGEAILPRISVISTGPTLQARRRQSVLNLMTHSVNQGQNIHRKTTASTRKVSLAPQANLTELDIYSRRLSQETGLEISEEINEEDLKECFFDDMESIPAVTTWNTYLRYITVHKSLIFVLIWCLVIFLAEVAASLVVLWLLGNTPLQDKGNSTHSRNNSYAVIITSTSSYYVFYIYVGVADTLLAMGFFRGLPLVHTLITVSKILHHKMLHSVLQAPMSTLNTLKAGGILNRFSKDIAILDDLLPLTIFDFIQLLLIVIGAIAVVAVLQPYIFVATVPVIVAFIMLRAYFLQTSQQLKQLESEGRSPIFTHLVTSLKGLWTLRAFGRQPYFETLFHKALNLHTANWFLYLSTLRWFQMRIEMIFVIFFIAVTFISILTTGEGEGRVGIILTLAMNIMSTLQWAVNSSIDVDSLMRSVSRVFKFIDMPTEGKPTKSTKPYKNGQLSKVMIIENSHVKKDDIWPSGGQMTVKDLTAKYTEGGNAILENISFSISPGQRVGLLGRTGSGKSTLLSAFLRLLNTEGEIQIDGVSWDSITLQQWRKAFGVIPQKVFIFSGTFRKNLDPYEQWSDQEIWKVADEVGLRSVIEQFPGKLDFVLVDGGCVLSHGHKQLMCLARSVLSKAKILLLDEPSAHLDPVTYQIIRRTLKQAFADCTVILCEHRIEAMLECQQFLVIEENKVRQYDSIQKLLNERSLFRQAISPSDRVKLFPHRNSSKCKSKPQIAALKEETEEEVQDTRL

Compound | EC50
COc1ccc(-c2ccnc3cc(C(=O)N[C@H]4CC[C@@H](C(=O)N5CCNCC5)CC4)nn23)cc1OC [Compound 81, 7-(3,4-dimethoxyphenyl)-N-((1S,4S)-4-(piperazine-1-carbonyl)cyclohexyl) pyrazolo[1,5-a]pyrimidine-2-carboxamide] | ≥ 2 µM
COc1ccc(-c2ccnc3cc(C(=O)Nc4ccc(C(=O)N5CCN(C)CC5)c(OC)c4)nn23)cc1OC [Compound 218, 7-(3,4-dimethoxyphenyl)-N-(3-methoxy-4-(4-methylpiperazine-1-carbonyl)phenyl)pyrazolo [1,5-a]pyrimidine-2-carboxamide] | ≥ 2 µM
COc1ccc(-c2ccnc3cc(C(=O)N[C@H]4CC[C@H](C(=O)NCCN5CCOCC5)CC4)nn23)cc1OC [Compound 202, 7-(3,4-dimethoxyphenyl)-N-((1r,4r)-4-((2-morpholinoethyl)carbamoyl)cyclohexyl)pyrazolo [1,5-a]pyrimidine-2-carboxamide] | ≥ 2 µM
COc1ccc(-c2ccnc3cc(C(=O)NN4CCN(C)CC4)nn23)cc1OC [Compound 68, 7-(3,4-dimethoxyphenyl)-N-(4-methylpiperazin-1-yl) pyrazolo[1,5-a]pyrimidine-2-carboxamide] | ≥ 2 µM
COc1ccc(-c2ccnc3cc(C(=O)Nc4ccc(C(=O)NCC(=O)O)cc4)nn23)cc1OC [Compound 30, (4-(7-(3,4-dimethoxyphenyl)pyrazolo[1,5-a]pyrimidine-2-carboxamido)benzoyl)glycine] | ≥ 2 µM
COc1ccc(-c2ccnc3cc(C(=O)Nc4ccc(C(=O)OCCCN5CCOCC5)c(Cl)c4)nn23)cc1OC [Compound 162, 3-morpholinopropyl 2-chloro-4-(7-(3,4-dimethoxyphenyl)pyrazolo [1,5-a]pyrimidine-2-carboxamido)benzoate] | ≥ 2 µM
COc1ccc(-c2ccnc3cc(C(=O)N4CCc5cc(C(=O)O)ccc54)nn23)cc1OC [Compound 231, 1-(7-(3,4-dimethoxyphenyl)pyrazolo[1,5-a]pyrimidine-2-carbonyl) indoline-5-carboxylic acid] | ≥ 2 µM
COc1ccc(-c2ccnc3cc(C(=O)NC45CC(C(N)=O)(C4)C5)nn23)cc1OC [Compound 95, N-(3-carbamoylbicyclo [1.1.1]pentan-1-yl)-7-(3,4-dimethoxyphenyl) pyrazolo[1,5-a]pyrimidine-2-carboxamide] | ≥ 2 µM
COc1ccc(-c2ccnc3cc(C(=O)N[C@H]4CC[C@@H](C(N)=O)CC4)nn23)cc1OC [Compound 71, N-((1S,4S)-4-carbamoylcyclohexyl)-7-(3,4-dimethoxyphenyl)pyrazolo [1,5-a]pyrimidine-2-carboxamide] | ≥ 2 µM
COc1ccc(-c2ccnc3cc(C(=O)NC4CCN(C[C@@H](O)CO)CC4)nn23)cc1OC [Compound 103, (R)-N-(1-(2,3-dihydroxypropyl)piperidin-4-yl)-7-(3,4-dimethoxyphenyl) pyrazolo[1,5-a]pyrimidine-2-carboxamide] | ≥ 2 µM
COc1ccc(-c2ccnc3cc(C(=O)Nc4ccc(C(=O)N5CCC[C@H]5C(=O)O)cc4)nn23)cc1OC [Compound 50, (4-(7-(3,4-dimethoxyphenyl)pyrazolo[1,5-a]pyrimidine-2-carboxamido)benzoyl)-L-proline] | ≥ 2 µM
CCOc1ccc(NC(=O)c2cc3nccc(-c4cccc(C)c4)n3n2)cc1 [Compound 301, N-(4-ethoxyphenyl)-7-(m-tolyl)pyrazolo[1,5-a] pyrimidine-2-carboxamide] | ≥ 2 µM
CCOc1ccc(NC(=O)c2cc3ncc(-c4ccc(OC)c(OC)c4)cn3n2)cc1 [Compound 254, 6-(3,4-dimethoxyphenyl)-N-(4-ethoxyphenyl)pyrazolo[1,5-a]pyrimidine-2-carboxamide] | ≥ 2 µM
COc1ccc(-c2ccnc3cc(C(=O)NN4CCOCC4)nn23)cc1OC [Compound 99, 7-(3,4-dimethoxyphenyl)-N-morpholinopyrazolo[1,5-a] pyrimidine-2-carboxamide] | ≥ 2 µM

The remaining lines, values ahead:

EC50 | Compound
≥ 2 µM | COc1ccc(-c2ccnc3cc(C(=O)N[C@H]4CC[C@H](C(=O)NC5CCN(C6CCOCC6)CC5)CC4)nn23)cc1OC [Compound 340, 7-(3,4-dimethoxyphenyl)-N-((1R,4R)-4-((1-(tetrahydro-2H-pyran-4-yl)piperidin-4-yl)carbamoyl)cyclohexyl) pyrazolo[1,5-a] pyrimidine-2-carboxamide]
0.2 to 2 µM | CCOc1ccc(NC(=O)c2cc3nccc(-c4ccc(OC)cc4)n3n2)cc1 [Compound 13, N-(4-ethoxyphenyl)-7-(4-methoxyphenyl)pyrazolo [1,5-a]pyrimidine-2-carboxamide]
≥ 2 µM | COc1ccc(-c2ccnc3cc(C(=O)N[C@H]4CC[C@H](C(=O)NCCCN5CCOCC5)CC4)nn23)cc1OC [Compound 203, 7-(3,4-dimethoxyphenyl)-N-((1r,4r)-4-((3-morpholinopropyl)carbamoyl)cyclohexyl) pyrazolo[1,5-a]pyrimidine-2-carboxamide]
≥ 2 µM | COc1ccc(-c2ccnc3cc(C(=O)N4CCCc5cc(C(=O)O)ccc54)nn23)cc1OC [Compound 233, 1-(7-(3,4-dimethoxyphenyl)pyrazolo[1,5-a]pyrimidine-2-carbonyl)-1,2,3,4-tetrahydroquinoline-6-carboxylic acid]
0.2 to 2 µM | COc1cccc(C(=O)N2CCN(C(=O)c3cc4nccc(-c5ccc(OC)c(OC)c5)n4n3)C[C@@H]2C)c1 [Compound 318, (S)-(7-(3,4-dimethoxyphenyl)pyrazolo[1,5-a]pyrimidin-2-yl)(4-(3-methoxybenzoyl)-3-methylpiperazin-1-yl) methanone]
≥ 2 µM | CCOc1ccc(NC(=O)c2cc3nccc(-c4cccs4)n3n2)cc1 [Compound 303, N-(4-ethoxyphenyl)-7-(thiophen-2-yl) pyrazolo[1,5-a]pyrimidine-2-carboxamide]
< 0.2 µM | COc1ccc(-c2ccnc3cc(C(=O)Nc4ccc(C(=O)OCCCN5CCN(C)CC5)cn4)nn23)cc1OC [Compound 189, 3-(4-methylpiperazin-1-yl) propyl 6-(7-(3,4-dimethoxyphenyl)pyrazolo [1,5-a]pyrimidine-2-carboxamido)nicotinate]
< 0.2 µM | COc1ccc(-c2ccnc3cc(C(=O)N4CCN(C(=O)c5ccccc5C)[C@@H](C)C4)nn23)cc1OC [Compound 381, (S)-(7-(3,4-dimethoxyphenyl)pyrazolo[1,5-a]pyrimidin-2-yl) (3-methyl-4-(2-methylbenzoyl)piperazin-1-yl)methanone]
0.2 to 2 µM | CC[C@H]1CN(C(=O)c2cc3nccc(-c4ccc(OC)c(OC)c4)n3n2)CCN1 [Compound 371, (S)-(7-(3,4-dimethoxyphenyl)pyrazolo[1,5-a]pyrimidin-2-yl)(3-ethylpiperazin-1-yl)methanone]
0.2 to 2 µM | COc1ccc(-c2ccnc3cc(C(=O)N4CCN(C(=O)c5cccc(Cl)c5)[C@@H](C)C4)nn23)cc1OC [Compound 261, (S)-(4-(3-chlorobenzoyl)-3-methylpiperazin-1-yl) (7-(3,4-dimethoxyphenyl)pyrazolo[1,5-a]pyrimidin-2-yl)methanone]
< 0.2 µM | COc1ccc(-c2ccnc3cc(C(=O)N4CCN(C(=O)c5ccccc5)[C@@H](C5CC5)C4)nn23)cc1OC [Compound 378, (S)-(4-benzoyl-3-cyclopropylpiperazin-1-yl)(7-(3,4-dimethoxyphenyl)pyrazolo[1,5-a]pyrimidin-2-yl) methanone]
0.2 to 2 µM | COC(=O)c1ccc(N(C)C(=O)c2cc3nccc(-c4ccc(OC)c(OC)c4)n3n2)cc1 [Compound 183, methyl 4-(7-(3,4-dimethoxyphenyl)-N-methylpyrazolo[1,5-a]pyrimidine-2-carboxamido)benzoate]
< 0.2 µM | COc1ccc(-c2ccnc3cc(C(=O)N4C[C@H](C)N(C(=O)c5ccccc5)C[C@@H]4C)nn23)cc1OC [Compound 366, ((2S,5S)-4-benzoyl-2,5-dimethylpiperazin-1-yl)(7-(3,4-dimethoxyphenyl)pyrazolo[1,5-a]pyrimidin-2-yl)methanone]
0.2 to 2 µM | COCCOCOC(=O)[C@H]1CC[C@H](NC(=O)c2cc3nccc(-c4ccc(OC)c(OC)c4)n3n2)CC1 [Compound 328, (2-methoxyethoxy)methyl (1R,4R)-4-(7-(3,4-dimethoxyphenyl)pyrazolo [1,5-a]pyrimidine-2-carboxamido)cyclohexane-1-carboxylate]
0.2 to 2 µM | COc1ccc(-c2ccnc3cc(C(=O)Nc4ccc(OC(C)C)cc4)nn23)cc1OC [Compound 290, 7-(3,4-dimethoxyphenyl)-N-(4-isopropoxyphenyl)pyrazolo [1,5-a]pyrimidine-2-carboxamide]
< 0.2 µM | COc1ccc(-c2ccnc3cc(C(=O)Nc4ccc(O)cn4)nn23)cc1OC [Compound 327, 7-(3,4-dimethoxyphenyl)-N-(5-hydroxypyridin-2-yl)pyrazolo[1,5-a] pyrimidine-2-carboxamide]
0.2 to 2 µM | CCCCOC(=O)[C@H]1CC[C@H](NC(=O)c2cc3nccc(-c4ccc(OC)c(OC)c4)n3n2)CC1 [Compound 332, butyl (1r,4r)-4-(7-(3,4-dimethoxyphenyl)pyrazolo [1,5-a]pyrimidine-2-carboxamido)cyclohexane-1-carboxylate]
< 0.2 µM | COc1ccc(-c2ccnc3cc(C(=O)Nc4ccc(F)cc4)nn23)cc1OC [Compound 267, 7-(3,4-dimethoxyphenyl)-N-(4-fluorophenyl)pyrazolo[1,5-a]pyrimidine-2-carboxamide]
< 0.2 µM | COC(=O)[C@H](CCSC)NC(=O)c1ccc(NC(=O)c2cc3nccc(-c4ccc(OC)c(OC)c4)n3n2)cc1 [Compound 59, methyl (4-(7-(3,4-dimethoxyphenyl)pyrazolo [1,5-a]pyrimidine-2-carboxamido)benzoyl)-L-methioninate]
